Measurements reported in ChEMBL document CHEMBL3507680, “University of Dundee, Gates Library screen for HepG2 cell viability”.

Test: Human HepG2 cell viability assay in 384 well format
Type: toxicity, cell-based
Set-up: dose 125 nL, time 70.5 hour; concentration not given beside the values
Conditions: HepG2 cells, read-out: Inhibition

COCCn1c(-c2cccc(OC)c2)cnc1NC(=O)NCC(C)C
cytotoxicity at 70.5 h: -18.3%

COC1CCN(S(=O)(=O)N2CC[C@@](O)(C3CCC3)[C@H](C)C2)CC1
cytotoxicity at 70.5 h: -11.9%

CCc1ccc(CC)c(NCc2cnc(N3CCOCC3)nc2)c1
cytotoxicity at 70.5 h: -2.91%

COc1ccc(C(CNC(=O)NCc2csc(C)n2)N(C)C)cc1 (centres undefined)
cytotoxicity at 70.5 h: 21%

CC(C)(C)CC(=O)NS(=O)(=O)c1ccc(F)cc1C(F)(F)F
cytotoxicity at 70.5 h: -1.73%

CC(=O)NCCCNCc1cc(F)ccc1Br
cytotoxicity at 70.5 h: 15%

COc1ccc2c(C)c(C(=O)NC3CCCOC3)oc2c1 (centres undefined)
cytotoxicity at 70.5 h: -4.44%

CN(Cc1cc[nH]n1)C(=O)c1cccc(CCC(C)(C)O)c1
cytotoxicity at 70.5 h: -3.42%

Cc1cccn2cc(C[S+]([O-])Cc3noc(C(C)C)n3)nc12 (centres undefined)
cytotoxicity at 70.5 h: -1.76%

Cc1nc(C)n(C2CCCN(C(=O)c3ncoc3C(C)C)C2)n1 (centres undefined)
cytotoxicity at 70.5 h: -11.1%

CN(C)CCN1C(=O)CCC12CCCN(C(=O)CC1CC1)CC2 (centres undefined)
cytotoxicity at 70.5 h: 20.2%

CCn1c(CC2CCN(S(=O)(=O)Cc3ccccc3)CC2)nn(C)c1=O
cytotoxicity at 70.5 h: -9.61%

Cc1nc(C(=O)N2CCC(Cc3cnc4[nH]ccc4c3)C2)co1 (centres undefined)
cytotoxicity at 70.5 h: 18.9%

Cn1c(=O)n(C)c2cc(C3SCC(=O)Nc4ccsc43)ccc21 (centres undefined)
cytotoxicity at 70.5 h: 38.6%

CS(=O)(=O)CCCN(CCCO)C1CCc2ccccc21 (centres undefined)
cytotoxicity at 70.5 h: -107%

O=S(=O)(NCCn1ccc(-c2ccccn2)n1)C1CCCCC1
cytotoxicity at 70.5 h: 23.9%

Cc1cccc(NC2CCN(C(=O)Nc3cc(C)on3)CC2)n1
cytotoxicity at 70.5 h: -14.3%

Cc1nc(CSc2ccc(C(F)(F)F)cn2)no1
cytotoxicity at 70.5 h: -9.49%

Cc1nnc(N2CC[C@H](OCC3CC3)[C@@H](Cc3ccccc3)C2)s1
cytotoxicity at 70.5 h: 11.8%

Cc1cc(C)n(C2CCCN(C(=O)c3ccnc(N(C)C)c3)C2)n1 (centres undefined)
cytotoxicity at 70.5 h: -0.851%

Cn1ccnc1-c1cccc(NC(=O)NCC(=O)NC(C)(C)C)c1
cytotoxicity at 70.5 h: 4.86%

Cc1ccc2[nH]c(CN(C)c3cc(CN)nc(C)n3)nc2c1
cytotoxicity at 70.5 h: 0.934%

CC(=O)N1CCN(Cc2coc(-c3cccc(F)c3)n2)CC1
cytotoxicity at 70.5 h: -19.9%

CCn1ncc2c1C(COC)CN(Cc1ccc(C)o1)C2 (centres undefined)
cytotoxicity at 70.5 h: 2.21%

COc1ccc(C(C(=O)O)N(C)CCN2CCCC2)c(C)c1 (centres undefined)
cytotoxicity at 70.5 h: 24%

Fc1cccnc1OC[C@@]12CCO[C@@H]1CCN(CC1CCOCC1)C2
cytotoxicity at 70.5 h: -9.65%

O=C(c1ccccc1-c1ccccc1)N1CCOC2(CNCCOC2)C1 (centres undefined)
cytotoxicity at 70.5 h: -11.1%

c1csc(-c2nc(CN3CCOC(Cn4cncn4)C3)cs2)c1 (centres undefined)
cytotoxicity at 70.5 h: -26.8%

Cc1ccc(N2CCCC(NCC3=Cc4ccccc4OC3)C2)nn1 (centres undefined)
cytotoxicity at 70.5 h: -5.84%

CCn1nc(C)c2nnn(CC(=O)Nc3cccc(Cl)c3)c(=O)c21
cytotoxicity at 70.5 h: -5.39%

CCc1nc(CN2CCCN(CC(=O)N3CCOCC3)CC2)no1
cytotoxicity at 70.5 h: 41.7%

Cc1nn(C)cc1NC(=O)CN1CCC(Oc2cnccn2)CC1
cytotoxicity at 70.5 h: -4.13%

COc1cc(Cc2nc3c([nH]2)CC(C)(C)CNC3=O)cc(OC)c1
cytotoxicity at 70.5 h: 8.47%

Cn1cc(CN2CCC(CCC(=O)NCc3ccc(F)cc3)CC2)cn1
cytotoxicity at 70.5 h: 4.72%

Cc1occc1C(=O)N1CCOCC2(CCN(C3CCOCC3)C2)C1 (centres undefined)
cytotoxicity at 70.5 h: -19.7%

c1cnc2c(c1)cc(C1CCOCC1)n2CCN1CCOCC1
cytotoxicity at 70.5 h: -11.3%

CC1=C(C#N)C(=O)N(C)C(=O)/C1=C\C1=Cc2ccccc2OC1
cytotoxicity at 70.5 h: 8.21%

Cc1ccc(-n2cccn2)cc1S(=O)(=O)N1C[C@@H]2CC[C@H](C1)N(C)C2
cytotoxicity at 70.5 h: -1.91%

O=C(Cn1nnc(-c2cc3ccccc3o2)n1)N1CCOCC1
cytotoxicity at 70.5 h: -18.1%

OCc1n[nH]c(-c2ccc(F)cc2)n1
cytotoxicity at 70.5 h: -13.2%

CNc1nc(C2CCCN2C(C)=O)nc2c1CN(C1CCCC1)CC2 (centres undefined)
cytotoxicity at 70.5 h: -4.73%

COCCNc1nc2c(c(NCCc3cccs3)n1)CCNCC2
cytotoxicity at 70.5 h: -2.67%

Cc1noc2ncc(C(=O)N3CCCC3c3ccsc3)cc12 (centres undefined)
cytotoxicity at 70.5 h: -1.73%

CCOc1ccc(-c2cc(CCN)ccc2OC)cc1
cytotoxicity at 70.5 h: -1.62%

Cn1nc(C(=O)NN2CCOCC2)c(Cl)c1C(F)(F)F
cytotoxicity at 70.5 h: -3.83%

Cn1cccc(NC(=O)COc2ccc(Br)cc2)c1=O
cytotoxicity at 70.5 h: 21.8%

CN1C(=O)CC2(CCN(S(=O)(=O)C3CC3)CC2)c2ccccc21
cytotoxicity at 70.5 h: 7.41%

COc1ccc(-c2nnc(CNCCn3cc(C)cn3)o2)cc1
cytotoxicity at 70.5 h: 14.6%

CCCn1nc(C(=O)N2CCCC2c2noc(C)n2)ccc1=O (centres undefined)
cytotoxicity at 70.5 h: -0.244%

COCCN1CCC12CCN(C(=O)Cc1cccs1)C2 (centres undefined)
cytotoxicity at 70.5 h: -7.8%

Cn1c(N)nnc1SC1CCCN(c2ccccc2)C1=O (centres undefined)
cytotoxicity at 70.5 h: -1%

Cc1ccc(CN2CC[C@@H]3[C@H]2CCC(=O)N3Cc2ccncc2)s1
cytotoxicity at 70.5 h: 21%

Cc1ccc(CN(CCN(C)C)Cc2nc3ccccc3[nH]2)s1
cytotoxicity at 70.5 h: 11.2%

O=C(c1cc(C2CC2)no1)N1C[C@H]2CC[C@@H]1CN(Cc1ccccn1)C2
cytotoxicity at 70.5 h: -14.9%

CC(=O)N1Cc2ccnn2CC(C(=O)NCc2cccnc2)C1 (centres undefined)
cytotoxicity at 70.5 h: -6.11%

O=S(=O)(c1ccccc1F)N1CCCCC1c1cc[nH]n1 (centres undefined)
cytotoxicity at 70.5 h: -5%

CS(=O)(=O)c1cccc(S(=O)(=O)NC(=O)CCC2CCCCC2)c1
cytotoxicity at 70.5 h: -7.19%

CN(C)c1cc(C2CCCNC2)ccn1 (centres undefined)
cytotoxicity at 70.5 h: 4.83%

CC(CN1CCCC1=O)NC(=O)c1cc(Cl)c2c(c1)OCO2 (centres undefined)
cytotoxicity at 70.5 h: 7.24%

CC(=O)NCCc1ccc(C(=O)N2CCCC2c2cnn(C)c2)cc1 (centres undefined)
cytotoxicity at 70.5 h: 15.1%

CCC1c2ccsc2CCN1C(=O)NCc1cccnc1N(C)C (centres undefined)
cytotoxicity at 70.5 h: 13%

Cc1nn(C)c(Cl)c1C1CCCN1CC(=O)NC1CCCC1 (centres undefined)
cytotoxicity at 70.5 h: 2.37%

Cc1cnn(CC2CN(CC(=O)N(C)Cc3cccs3)CCO2)c1 (centres undefined)
cytotoxicity at 70.5 h: -1.56%

CCc1nc(CN2CCCC(N(C)Cc3cnc(C)cn3)C2)no1 (centres undefined)
cytotoxicity at 70.5 h: -71.2%

Cc1nc(CN2CCCC(Cn3cncn3)C2)nc2ccccc12 (centres undefined)
cytotoxicity at 70.5 h: 19%

Cc1ncoc1C(=O)N1CCOC(Cc2ccccc2)C1 (centres undefined)
cytotoxicity at 70.5 h: -6.6%

CN1CCN(C(=O)c2cn(-c3ccc(C(F)(F)F)cn3)nn2)CC1
cytotoxicity at 70.5 h: -6.96%

Cc1cc(CN(C)C(=O)NCc2cccc(N3CCCC3=O)c2)no1
cytotoxicity at 70.5 h: -25.6%

CC(c1ccc(C(=O)NCCc2nc(N)cc(O)n2)o1)N1CCCCC1 (centres undefined)
cytotoxicity at 70.5 h: -3.9%

O=C1Nc2ccccc2CC12CCCN2Cc1ccc(C(F)(F)F)cc1 (centres undefined)
cytotoxicity at 70.5 h: 6.34%

O=C(CCN1CCCN(c2nccs2)CC1)NCC1CCCCC1
cytotoxicity at 70.5 h: -8.1%

COc1c(CNCc2ccc(N(C)C)nc2)c(C)nn1C
cytotoxicity at 70.5 h: 24.3%

NS(=O)(=O)CCNC(=O)c1ccc(OCc2ccccc2)nc1
cytotoxicity at 70.5 h: 20.5%

CCN(Cc1nonc1C)C(=O)Cn1nc(C(F)(F)F)cc1C1CC1
cytotoxicity at 70.5 h: -5.16%

CNC(=O)C1(c2cnccn2)CCCN1C(=O)c1ccccn1 (centres undefined)
cytotoxicity at 70.5 h: 8.19%

Cc1nc(CN2C(=O)COC3(CCN(Cc4ccco4)CC3)C2C)cs1 (centres undefined)
cytotoxicity at 70.5 h: -1.55%

O=C(c1cccc(Cl)c1)C1CCCN(c2nnc(C3CCC3)o2)C1 (centres undefined)
cytotoxicity at 70.5 h: 5.93%

Cc1cccc(NC(=O)c2sc(C)nc2C)n1
cytotoxicity at 70.5 h: -11.8%

CC(CCO)Nc1cccc(C(F)(F)F)n1 (centres undefined)
cytotoxicity at 70.5 h: 3.64%

COc1cccc(-c2cccc(-c3ccn(CC4COCCO4)n3)c2)n1 (centres undefined)
cytotoxicity at 70.5 h: 13.1%

O=C(Nc1cnn(C2CCOCC2)c1)c1ccc2c(c1)OCO2
cytotoxicity at 70.5 h: -16%

CN(Cc1nnc2n1CCC2)C(=O)c1ccc(=O)n(C)n1
cytotoxicity at 70.5 h: 4.72%

c1cncc(CN2CCc3ncnc(C4CC4)c3CC2)c1
cytotoxicity at 70.5 h: 2.26%

CN(C(=O)Cn1nnnc1C(C)(C)C)c1ccccc1
cytotoxicity at 70.5 h: -19.5%

O=S1(=O)CCC(n2cc(C3=CCN(CCc4ccccc4)CC3)cn2)C1 (centres undefined)
cytotoxicity at 70.5 h: -2.15%

O=C(NCc1ccc2nonc2c1)C1CCN(C(=O)C2CCC2)CC1
cytotoxicity at 70.5 h: -6.22%

CCn1cnc2c(c(Br)nn2C)c1=O
cytotoxicity at 70.5 h: -17.1%

CC(C)N1CCC2(CC1)CC(NCc1ccccn1)c1ccccc1O2 (centres undefined)
cytotoxicity at 70.5 h: -0.344%

COc1cc(NC(=O)NCC2CCCO2)cc(OC)c1 (centres undefined)
cytotoxicity at 70.5 h: 16.9%

CN(C)CCOCC1CN(Cc2ccsc2)Cc2ccnn2C1 (centres undefined)
cytotoxicity at 70.5 h: 3.88%

CC(C)c1sc(Cl)nc1C(=O)NCc1ccncc1
cytotoxicity at 70.5 h: 19.6%

O=C1NCCO[C@H]2CN(C(=O)CCc3ccc(Cl)cc3)CC[C@@H]12
cytotoxicity at 70.5 h: -17.3%

CC(=O)N(C)Cc1ccccc1NC(=O)c1cnn(C)c1C
cytotoxicity at 70.5 h: -0.121%

CCN1CC(C(=O)NCc2nn(CC)c3ccccc23)CCC1=O (centres undefined)
cytotoxicity at 70.5 h: 10.8%

O=C1CC2(CCN(Cc3ncc[nH]3)CC2)CN1Cc1ccc(Cl)cc1
cytotoxicity at 70.5 h: -2.21%

COc1ccc(-c2noc([C@@H]3C[C@@H](O)CN3C3CCCCC3)n2)cc1
cytotoxicity at 70.5 h: -1.99%

COC(=O)Cn1c(=O)nc2n1C(=O)N(c1cccc(C)c1)C2
cytotoxicity at 70.5 h: -7.13%

COc1ccc(C(=O)NC2CC2)c(OC2CCN(C3CCC3)CC2)c1
cytotoxicity at 70.5 h: -3.47%

CC(C)C(C)N(Cc1ccccn1)Cc1ccco1 (centres undefined)
cytotoxicity at 70.5 h: -22.8%

Cc1nnc2n1CCN(C(=O)c1cc(Cl)c[nH]1)C2
cytotoxicity at 70.5 h: -6.67%

CCCc1nnc(NC(=O)Cc2c(C)nc(C)[nH]c2=O)s1
cytotoxicity at 70.5 h: -6.43%

CC(C)=CCN1CCN(C(=O)CSc2ccccn2)[C@H]2CS(=O)(=O)C[C@H]21
cytotoxicity at 70.5 h: -8.43%

O=C(Nc1cc(C(F)(F)F)c[nH]c1=O)C1CCCN1 (centres undefined)
cytotoxicity at 70.5 h: -10.7%

Cc1noc(C)c1CN(C)C(C)c1cccs1 (centres undefined)
cytotoxicity at 70.5 h: -3.21%

Cc1cn2c(=O)c(-c3ccnc(N[C@@H](C)CO)n3)cnc2s1
cytotoxicity at 70.5 h: -5.83%

CCc1nnc(C(C)N2CCCN(C(=O)OCC(C)C)CC2)o1 (centres undefined)
cytotoxicity at 70.5 h: 7.35%

Cc1noc(-c2ccc(N3CCCC(C(=O)N4CCSCC4)C3)nc2)n1 (centres undefined)
cytotoxicity at 70.5 h: 3.88%

COCCN(Cc1cccnc1)c1nc(C)nc2oc(C)nc12
cytotoxicity at 70.5 h: -5.28%

Cc1cc(Cn2cc(C#N)c(=O)c3ccccc32)no1
cytotoxicity at 70.5 h: -5.19%

O=C1CC(c2ccccc2F)c2c(n3ccsc3nc2=O)N1 (centres undefined)
cytotoxicity at 70.5 h: -14%

Cc1cc(C2CCCN2Cc2cccc(C(=O)Nc3nccs3)c2)no1 (centres undefined)
cytotoxicity at 70.5 h: -14.5%

CC(=O)NCCc1nc(C(C)C)nn1-c1ccncc1C
cytotoxicity at 70.5 h: -14.7%

COc1ccc(-c2cccc(-c3ccn(CCCN(C)C)n3)c2)nn1
cytotoxicity at 70.5 h: -13.7%

Cc1ccc(CN2CCc3nnc(CN4CCCC4=O)n3CC2)s1
cytotoxicity at 70.5 h: -7.74%
